# Literature values as cited in patent US9072714B2, “Fatty acids for use as a medicament” (Lipid Pharmaceuticals ehf., priority 2008, dated 2015).
# Conditions: laxative, by class and site of action
row,Compound,Onset of action [h]
1,O=C1OC(c2ccc(O)cc2)(c2ccc(O)cc2)c2ccccc21 [Phenolphthalein],6 to 8
2,CCCCC(CC)COC(=O)CC(C(=O)OCC(CC)CCCC)S(=O)(=O)O (centres unmarked) [Docusate],12 to 72
